Test results reported in patent US12030903B2, “Antiviral compounds” (Gilead Sciences, Inc., priority 2020, dated 2024).

Target: T1, DENV2 NS5 (Dengue virus type 2, UniProt P14340)
T1 construct: His tag (pET28b, thrombin-cleavable) (N); made in house; host or cells: E. coli BL21 (DE3)
Test: DENV Pol IC50 (DENV2-NS5 polymerase assay)
Type: biochemical
Conditions: 100 nM DENV2 NS5, sshRNA template, 90 minutes at 30° C.

| IC50 [µM] | SMILES |
| --- | --- |
| 7.09 | Nc1ncnn2c([C@@H]3O[C@](CCl)(COP(=O)(O)OP(=O)(O)OP(=O)(O)O)[C@@H](O)[C@H]3O)ccc12 [Comp. Ex. 2, ((2R,3S,4R,5S)-5-(4-aminopyrrolo[2,1-f][1,2,4]triazin-7-yl)-2-(chloromethyl)-3,4-dihydroxytetrahydrofuran-2-yl)methyl tetrahydrogen triphosphate, reference compound] |
| 0.737 | Nc1ncnn2c([C@@H]3O[C@](CF)(COP(=O)(O)OP(=O)(O)OP(=O)(O)O)[C@@H](O)[C@H]3O)ccc12 [Example 2, sodium ((2R,3S,4R,5S)-5-(4-aminopyrrolo[2,1-f][1,2,4]triazin-7-yl)-2-(fluoromethyl)-3,4-dihydroxytetrahydrofuran-2-yl)methyl triphosphate] |
